# Assay results reported in patent US20240285497A1, “METHOD FOR EVALUATING AN ABILITY OF A TEST SAMPLE TO TRIGGER A FOREIGN BODY REACTION IN THE SKIN, A METHOD FOR SCREENING A SUBSTANCE HAVING AN ABILITY TO INHIBIT A FOREIGN BODY REACTION IN THE SKIN, AND AN AGENT FOR INHIBITING A FOREIGN BODY REACTION IN THE SKIN” (priority 2021, published 2024).
# Assays:
# [1] = tested on: TIMP-1 (Tissue Inhibitor of Matrix Metalloprotease-1) mRNA; assay: TIMP-1 mRNA expression in HaCaT cells, quantitative PCR; assay type: cell-based, human; conditions: 100 μM, 24 hours
# Experimental: Specifically, the mRNA expression of TIMP-1 in the HaCaT cells treated with Fraglide-1 was evaluated by performing quantitative PCR using cDNA obtained in Experiment 4-1. The procedure of quantitative PCR was the same as described in Experiment 4-1 except that the primers shown in below Table 5 were used.
# In FIG. 14, the results obtained for each sample were shown in relative values normalized by setting the expression level of TIMP-1 in the HaCaT cells incubated for 24 hours in DMEM medium not containing Fraglide-1 (i.e., the non-treated HaCaT cells) as 1. The results shown in FIG. 14 are the mean of values obtained from three independent experiments, and the error bars represent standard deviation (SD).
# On the other hand, as comparison, the similar evaluation was performed for retinoic acid and nicotinamide, which are known as active ingredients of anti-wrinkle agents, using cDNA obtained in Experiment 4-2. The procedure for quantitative PCR was the same as already described in Experiment 3-1, except that the primers shown in Table 5 were used.
# In FIG. 15, the results obtained for each sample were shown in relative values normalized by setting the expression level of TIMP-1 in the HaCaT cells incubated for 24 hours in DMEM medium not containing either retinoic acid and nicotinic acid amide (i.e., the non-treated HaCaT cells) as 1. The results shown in FIG. 15 are the mean of values obtained from three independent experiments, and the error bars represent standard deviation (SD).
# [2] = tested on: matrix metalloprotease 9 mRNA; assay: MMP9 mRNA expression in HaCaT cells contacted with FICZ, quantitative PCR; assay type: cell-based, human; conditions: 24 hours
# Experimental: First, HaCaT cells (CLI; Catalogue No.: 300493) were suspended in a DMEM medium at the density of 1×10^5 cell/mL, and 100 μL of the thus obtained suspension was added to each well of white 96 well plates (Thermo Fisher Scientific, MA, U.S.A.; Catalogue No.: 136102) so that the number of the cells in each well was 10,000 cells/well. In accordance with a conventional method, the cells were incubated at 37° C. for 24 hours in the presence of 5% CO2. Thereafter, the DMEM medium was removed, and 100 μL of a new DMEM medium containing FICZ at a predetermined concentration (i.e., 5 nM, 50 nM, 500 nM, and 5,000 nM) was added, followed by further incubation for 24 hours at 37° C. and 5% CO2. Meanwhile, negative controls were prepared by adding 100 μL of a DMEM medium containing no FICZ instead of the DMEM medium containing FICZ, which were also incubated for 24 hours at 37° C. and 5% CO2. […]
# Quantitative PCR was carried out by using THUNDERBIRD Next SYBR qPCR Mix (Toyobo Co., Ltd., Osaka, Japan; Catalogue No. QPX-201) and StepOne Real-Time PCR System (Thermo Fisher Scientific, MA, USA). […] The reaction solution was used for quantitative PCR. Based on Ct (cycle threshold) value obtained by quantitative PCR, an amount of mRNA of each target gene was obtained. […]
Compound,expression level of TIMP-1 compared to non-treated HaCaT cells [1],"expression level of TIMP-1 mRNA vs non-treated HaCaT cells (in words) ([1]; Fraglide-1 1 μM, 10 μM, retinoic acid / nicotinic acid amide at predetermined concentrations)",concentration necessary to observe a significant increase in the expression level of MMP9 mRNA [2],"expression level of MMP9 mRNA, dependence on concentration ([2]; FICZ 5-5,000 nM)"
"O=C1C=C(c2ccccc2)C(O)O1 (stereo not shown) [Fraglide-1, 5-hydroxy-4-phenyl-2(5H)butenolide]",about 4 fold,concentration-dependent increase,–,–
"6-formylindolo[3,2-b] carbazole [FICZ]",–,–,about 5000 nM,increased along with the concentration of FICZ
